Laboratory results taken from PubChem BioAssay (NCI).
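Five concentrations, 48 hours, 96-well plates. TGI: concentration producing complete growth inhibition.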

What was measured:
Experiment in all cases: NCI tumour cell line growth inhibition, 48 h
MCF7 breast = test system: MCF7 breast
HT29 colon = test system: HT29 colon
786-0 renal = test system: 786-0 renal
M14 melanoma = test system: M14 melanoma
UACC-257 melanoma = test system: UACC-257 melanoma
U251 CNS = test system: U251 CNS
RXF 393 renal = test system: RXF 393 renal
SNB-75 CNS = test system: SNB-75 CNS
SF-539 CNS = test system: SF-539 CNS
BT-549 breast = test system: BT-549 breast
NCI-H226 lung = test system: NCI-H226 lung
SF-295 CNS = test system: SF-295 CNS
EKVX NSCLC = test system: EKVX NSCLC
MDA-N = test system: MDA-N
PC-3 prostate = test system: PC-3 prostate
SN12C renal = test system: SN12C renal
A549 NSCLC = test system: A549 NSCLC
HCT-15 colon = test system: HCT-15 colon
COLO 205 colon = test system: COLO 205 colon
SW-620 colon = test system: SW-620 colon
OVCAR-8 ovarian = test system: OVCAR-8 ovarian
NCI-H23 lung = test system: NCI-H23 lung
OVCAR-4 ovarian = test system: OVCAR-4 ovarian
MDA-MB-231 breast = test system: MDA-MB-231 breast
NCI-H522 lung = test system: NCI-H522 lung
IGROV1 ovarian = test system: IGROV1 ovarian
OVCAR-3 ovarian = test system: OVCAR-3 ovarian
MOLT-4 leukemia = test system: MOLT-4 leukemia
SK-MEL-5 melanoma = test system: SK-MEL-5 melanoma
MALME-3M melanoma = test system: MALME-3M melanoma
CAKI-1 renal = test system: CAKI-1 renal
NCI/ADR-RES ovarian = test system: NCI/ADR-RES ovarian
SK-MEL-28 melanoma = test system: SK-MEL-28 melanoma
TK-10 renal = test system: TK-10 renal
SF-268 CNS = test system: SF-268 CNS
SK-OV-3 ovarian = test system: SK-OV-3 ovarian
K-562 leukemia = test system: K-562 leukemia
HCC-2998 colon = test system: HCC-2998 colon
MDA-MB-435 = test system: MDA-MB-435
T-47D breast = test system: T-47D breast
NCI-H460 lung = test system: NCI-H460 lung
LOX IMVI melanoma = test system: LOX IMVI melanoma
SR leukemia = test system: SR leukemia
HOP-62 NSCLC = test system: HOP-62 NSCLC
ACHN renal = test system: ACHN renal
DU-145 prostate = test system: DU-145 prostate
UACC-62 melanoma = test system: UACC-62 melanoma
HL-60(TB) leukemia = test system: HL-60(TB) leukemia
UO-31 renal = test system: UO-31 renal
CCRF-CEM leukemia = test system: CCRF-CEM leukemia
SK-MEL-2 melanoma = test system: SK-MEL-2 melanoma
SNB-19 CNS = test system: SNB-19 CNS
OVCAR-5 ovarian = test system: OVCAR-5 ovarian
RPMI-8226 leukemia = test system: RPMI-8226 leukemia
HOP-92 NSCLC = test system: HOP-92 NSCLC
HCT-116 colon = test system: HCT-116 colon
HS 578T breast = test system: HS 578T breast
KM12 colon = test system: KM12 colon

O=C(NC(=S)Nc1ccc2c(c1)Sc1ccccc1O2)c1ccccc1
TGI (MCF7 breast): > 100 µM
TGI (HT29 colon): > 100 µM
TGI (786-0 renal): 48.1 µM
TGI (M14 melanoma): > 100 µM
TGI (UACC-257 melanoma): > 100 µM
TGI (U251 CNS): 49.6 µM
TGI (RXF 393 renal): 64.5 µM
TGI (SNB-75 CNS): 40.3 µM
TGI (SF-539 CNS): 64.6 µM
TGI (BT-549 breast): > 100 µM
TGI (NCI-H226 lung): > 100 µM
TGI (SF-295 CNS): 79.4 µM
TGI (EKVX NSCLC): > 100 µM
TGI (MDA-N): > 100 µM
TGI (PC-3 prostate): 28.5 µM
TGI (SN12C renal): > 100 µM
TGI (A549 NSCLC): > 100 µM
TGI (HCT-15 colon): > 100 µM
TGI (COLO 205 colon): > 100 µM
TGI (SW-620 colon): > 100 µM
TGI (OVCAR-8 ovarian): > 100 µM
TGI (NCI-H23 lung): > 100 µM
TGI (OVCAR-4 ovarian): 92.3 µM
TGI (MDA-MB-231 breast): 57.8 µM
TGI (NCI-H522 lung): > 100 µM
TGI (IGROV1 ovarian): > 100 µM
TGI (OVCAR-3 ovarian): > 100 µM
TGI (MOLT-4 leukemia): > 100 µM
TGI (SK-MEL-5 melanoma): > 100 µM
TGI (MALME-3M melanoma): 93.2 µM
TGI (CAKI-1 renal): > 100 µM
TGI (NCI/ADR-RES ovarian): > 100 µM
TGI (SK-MEL-28 melanoma): > 100 µM
TGI (TK-10 renal): 54.3 µM
TGI (SF-268 CNS): > 100 µM
TGI (SK-OV-3 ovarian): > 100 µM
TGI (K-562 leukemia): > 100 µM
TGI (HCC-2998 colon): 49.2 µM
TGI (MDA-MB-435): > 100 µM
TGI (T-47D breast): > 100 µM
TGI (NCI-H460 lung): > 100 µM
TGI (LOX IMVI melanoma): > 100 µM
TGI (SR leukemia): 16.1 µM
TGI (HOP-62 NSCLC): > 100 µM
TGI (ACHN renal): > 100 µM
TGI (DU-145 prostate): > 100 µM
TGI (UACC-62 melanoma): > 100 µM
TGI (HL-60(TB) leukemia): > 100 µM
TGI (UO-31 renal): > 100 µM
TGI (CCRF-CEM leukemia): 95.9 µM
TGI (SK-MEL-2 melanoma): 48.8 µM
TGI (SNB-19 CNS): > 100 µM
TGI (OVCAR-5 ovarian): > 100 µM
TGI (RPMI-8226 leukemia): > 100 µM
TGI (HOP-92 NSCLC): 69 µM
TGI (HCT-116 colon): > 100 µM
TGI (HS 578T breast): > 100 µM
TGI (KM12 colon): > 100 µM
